# Reference: US12616738B2, “Solid compositions comprising a GLP-1 agonist and a salt of N-(8-(2-hydroxybenzoyl)amino)caprylic acid” (Novo Nordisk A/S, priority 2018, dated 2026)
# Where two headings read alike, the source gives them in different places.
# Assays:
# [1] = Assay I: SNAC solubility in combination with selected hydrotropes; conditions: for Fold increase in solubility: SNAC solubility relative to SNAC control (no hydrotrope), hydrotrope 200 mg/mL, pH 6; for SNAC concentration: hydrotrope 200 mg/mL in ultrapure water, pH 6, 200 mg SNAC added, 4 hours at room temperature, RP-HPLC
# [2] = pH 6
# [3] = pH 6; remark: listed apart in the source
Structure (SMILES),Fold increase in solubility [1] [fold],SNAC concentration [1] [mg/mL],effect on SNAC solubility (FIG. 1) [2],Fold increase in solubility [3] [fold],SNAC concentration [3] [mg/mL]
O=C(O[C@@H]1Cc2c(O)cc(O)cc2O[C@@H]1c1cc(O)c(O)c(O)c1)c1cc(O)c(O)c(O)c1 [Epigallocatechin gallate],9.6,5.66,–,–,–
"CCN(CC)C(=O)c1cccnc1 [N,N diethyl nicotinamide]",7.8,4.58,–,–,–
"CN(C)C(=O)c1ccccc1 [N,N dimethyl benzamide]",38,22.46,–,–,–
NC(=O)c1cccnc1 [Nicotinamide],–,–,dose dependent effect,–,–
O=C([O-])c1ccccc1O.[Na+] [Sodium salicylate],–,–,–,2.7,1.59
NC(N)=O [Urea],1.3,0.77,–,–,–
